In patent US20110039762A1, “TARGETED ANTIMICROBIAL MOIETIES” (C3 JIAN, INC., priority 2009, published 2011):

Columns and labels:
[1] = system: microorganisms; test: Peptides having multiple activities (targeting/binding, antimicrobial, growth or phenotype altering)
Excerpt: In certain embodiments, peptides described herein can have multiple activities. Thus for example, a peptide can have both binding/targeting activity and antimicrobial activity. Such peptides can be used, e.g., in a chimeric construct, for any or all of these properties. Thus, for example, a peptide designated “B” in Table 8 can be used as a targeting peptide. If it is also designated G or M it can also be used for antimicrobial activity.

[2] = system: B. subtilis; test: Kill or inhibit growth/proliferation; morphology, biofilm and growth disruption (Tables 5, 6); assay type: cell-based, Bacillus subtilis; set-up: key: A: Peptide aggregates; B: Less hyphal formation; Clumps; Diffuse clumps and small polyps; F: Diffuse growth; H: Thin; I: Growth inhibition; Microcolony formation; Rippled; Small polyps; Thick; W: Halo formation on top, microlonies on bottom; also: test concentration or dose not given here
[3] = system: S. pneumoniae; test: as above; assay type: cell-based, Streptococcus pneumoniae; set-up: key: A: Peptide aggregates; B: Less hyphal formation; Clumps; Diffuse clumps and small polyps; F: Diffuse growth; H: Thin; I: Growth inhibition; Microcolony formation; Rippled; Small polyps; Thick; W: Halo formation on top, microlonies on bottom; also: test concentration or dose not given here
[4] = system: T. rubrum; test: MIC (broth microdilution); assay type: cell-based, Trichophyton rubrum
How it was run: (§1)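 2-fold dilution series of peptides in 96-well plates, inoculated at about 1×10^5 cfu/mL in MH broth, following NCCLS standards. Plates held 18–24 h at 37 °C; each run repeated 10 times.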

[5] = system: A. niger; test: MIC (broth microdilution); assay type: cell-based, Aspergillus niger
How it was run: as §1

[6] = system: MRSA; test: MIC (broth microdilution); assay type: cell-based, Methicillin-resistant Staphylococcus aureus
How it was run: (§2)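 Organisms were diluted to ˜1×10^5 cfu/mL in Mueller-Hinton broth and dispensed into plates. Peptides were added as 2-fold serial dilutions. Plates were then held at 37° C. for 18-24 h.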

[7] = system: C. albicans; test: Kill or inhibit growth/proliferation; morphology, biofilm and growth disruption (Tables 5, 6); assay type: cell-based, Candida albicans; set-up: key: A: Peptide aggregates; B: Less hyphal formation; Clumps; Diffuse clumps and small polyps; F: Diffuse growth; H: Thin; I: Growth inhibition; Microcolony formation; Rippled; Small polyps; Thick; W: Halo formation on top, microlonies on bottom; also: test concentration or dose not given here
[8] = system: C. jeikeium; test: as above; assay type: cell-based, Corynebacterium jeikeium; set-up: key: A: Peptide aggregates; B: Less hyphal formation; Clumps; Diffuse clumps and small polyps; F: Diffuse growth; H: Thin; I: Growth inhibition; Microcolony formation; Rippled; Small polyps; Thick; W: Halo formation on top, microlonies on bottom; also: test concentration or dose not given here
[9] = system: S. epidermidis; test: as above; assay type: cell-based, Staphylococcus epidermidis; set-up: key: A: Peptide aggregates; B: Less hyphal formation; Clumps; Diffuse clumps and small polyps; F: Diffuse growth; H: Thin; I: Growth inhibition; Microcolony formation; Rippled; Small polyps; Thick; W: Halo formation on top, microlonies on bottom
[10] = system: S. epidermidis; assay type: cell-based, Staphylococcus epidermidis; settings: S. epidermidis; as to Organism, effect (morphology, biofilm and growth disruption): test concentration or dose not given here
How it was run: as §2

[11] = system: E. faecalis; test: MIC (broth microdilution); assay type: cell-based, Enterococcus faecalis
Protocol: (§3) Typically, the in vitro antimicrobial activity of antimicrobial agents is tested using standard NCCLS bacterial inhibition assays, or MIC tests (see, National Committee on Clinical Laboratory Standards “Performance Standards for Antimicrobial Susceptibility Testing,” NCCLS Document M100-S5 Vol. 14, No. 16, December 1994; “Methods for dilution antimicrobial susceptibility test for bacteria that grow aerobically-Third Edition,” Approved Standard M7-A3, National Committee for Clinical Standards, Villanova, Pa.).
(§4) Briefly, ˜1×10^5 cfu/mL bacteria were diluted in TH (S. mutans), or Mueller-Hinton (MH) broth (all other organisms) and distributed to 96-well plates. Serially-diluted (2-fold) peptides were then added and the plates incubated at 37° C. for 18-24 h. […] All experiments were conducted 10 times.

[12] = system: MRSA; test: Kill or inhibit growth/proliferation; morphology, biofilm and growth disruption (Tables 5, 6); assay type: cell-based, Methicillin-resistant Staphylococcus aureus; set-up: key: A: Peptide aggregates; B: Less hyphal formation; Clumps; Diffuse clumps and small polyps; F: Diffuse growth; H: Thin; I: Growth inhibition; Microcolony formation; Rippled; Small polyps; Thick; W: Halo formation on top, microlonies on bottom; also: test concentration or dose not given here
[13] = system: C. albicans; test: MIC (broth microdilution); assay type: cell-based, Candida albicans
Protocol: as §3, §4

[14] = system: E. faecalis; test: Kill or inhibit growth/proliferation; morphology, biofilm and growth disruption (Tables 5, 6); assay type: cell-based, Enterococcus faecalis; set-up: key: A: Peptide aggregates; B: Less hyphal formation; Clumps; Diffuse clumps and small polyps; F: Diffuse growth; H: Thin; I: Growth inhibition; Microcolony formation; Rippled; Small polyps; Thick; W: Halo formation on top, microlonies on bottom; also: test concentration or dose not given here
[15] = system: B. subtilis; test: MIC (broth microdilution); assay type: cell-based, Bacillus subtilis
How it was run: as §2

For MRFGSLALVAYDSAIKHSWPRPSSVRRLRM [PF-672], the Activities [1] was “G B M”, the “Organism, effect (morphology, biofilm and growth disruption)” value [2] was “B. subtilis (I)” and the “Organism, effect (morphology, biofilm and growth disruption)” value [3] was “S. pneumoniae (I)”. For the same sequence, the MIC [4] was “T. rubrum, 0.78 μM”, the MIC [5] was “A. niger, 3 μM” and the MIC [6] was “MRSA , 1.56 μM”. For the same sequence, the “Organism, effect (morphology, biofilm and growth disruption)” value [7] was “C. albicans (I)”, the “Organism, effect (morphology, biofilm and growth disruption)” value [8] was “C. jeikeium (R)” and the “Organism, effect (morphology, biofilm and growth disruption)” value [9] was “S. epidermidis (I)”. The MIC [10] was “S. epidermidis, 0.39 μM”, the MIC [11] was “E. faecalis, 3.13 μM” and the “Organism, effect (morphology, biofilm and growth disruption)” value [12] was “MRSA (I)”. For the same sequence, the MIC [13] was “C. albicans, 1.56 μM”, the “Organism, effect (morphology, biofilm and growth disruption)” value [14] was “E. faecalis (I)” and the MIC [15] was “B. subtilis, 0.78 μM”.
